Experimental data taken from PMC12586182 (Frontiers in Oncology, 2025).

What was measured:
PKCβ2 = target: T1, PKCβ2 (Homo sapiens, UniProt P05771); test: Kinase panel profiling at 1 µmol/L (mobility shift assay, Carna); type: biochemical; conditions: 1 µmol/L of BTK inhibitor
T1 construct: purchased Carna Biosciences

TYRO3 = target: T2, TYRO3 (Homo sapiens, UniProt Q06418); test: as above; type: biochemical; conditions: 1 µmol/L of BTK inhibitor
T2 construct: purchased Carna Biosciences
T2 sequence (Q06418 41-890): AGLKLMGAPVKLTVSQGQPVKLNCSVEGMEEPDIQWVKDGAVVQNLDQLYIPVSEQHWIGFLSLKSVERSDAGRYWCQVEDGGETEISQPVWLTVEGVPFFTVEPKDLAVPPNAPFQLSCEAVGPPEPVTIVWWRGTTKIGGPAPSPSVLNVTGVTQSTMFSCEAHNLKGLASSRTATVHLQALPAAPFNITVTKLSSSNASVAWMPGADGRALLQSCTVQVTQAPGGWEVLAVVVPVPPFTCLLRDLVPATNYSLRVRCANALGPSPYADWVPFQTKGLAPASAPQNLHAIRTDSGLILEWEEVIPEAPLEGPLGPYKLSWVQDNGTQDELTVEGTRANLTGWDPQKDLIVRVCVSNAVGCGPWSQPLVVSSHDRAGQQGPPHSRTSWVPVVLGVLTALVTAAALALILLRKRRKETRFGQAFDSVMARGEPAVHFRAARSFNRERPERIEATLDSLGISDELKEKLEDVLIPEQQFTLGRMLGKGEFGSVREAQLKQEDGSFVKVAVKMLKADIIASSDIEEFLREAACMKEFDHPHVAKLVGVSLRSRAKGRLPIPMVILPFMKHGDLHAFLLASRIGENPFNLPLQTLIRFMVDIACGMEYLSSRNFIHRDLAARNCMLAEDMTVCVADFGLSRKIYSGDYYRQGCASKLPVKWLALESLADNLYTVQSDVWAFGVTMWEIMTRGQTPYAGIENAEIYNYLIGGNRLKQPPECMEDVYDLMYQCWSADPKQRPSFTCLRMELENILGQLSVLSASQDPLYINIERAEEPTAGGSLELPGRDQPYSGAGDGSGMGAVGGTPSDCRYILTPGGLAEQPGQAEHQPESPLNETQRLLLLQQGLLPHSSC

HIPK4 = target: T3, HIPK4 (Homo sapiens, UniProt Q8NE63); test: as above; type: biochemical; conditions: 1 µmol/L of BTK inhibitor
T3 construct: purchased Carna Biosciences
T3 sequence (Q8NE63 1-616): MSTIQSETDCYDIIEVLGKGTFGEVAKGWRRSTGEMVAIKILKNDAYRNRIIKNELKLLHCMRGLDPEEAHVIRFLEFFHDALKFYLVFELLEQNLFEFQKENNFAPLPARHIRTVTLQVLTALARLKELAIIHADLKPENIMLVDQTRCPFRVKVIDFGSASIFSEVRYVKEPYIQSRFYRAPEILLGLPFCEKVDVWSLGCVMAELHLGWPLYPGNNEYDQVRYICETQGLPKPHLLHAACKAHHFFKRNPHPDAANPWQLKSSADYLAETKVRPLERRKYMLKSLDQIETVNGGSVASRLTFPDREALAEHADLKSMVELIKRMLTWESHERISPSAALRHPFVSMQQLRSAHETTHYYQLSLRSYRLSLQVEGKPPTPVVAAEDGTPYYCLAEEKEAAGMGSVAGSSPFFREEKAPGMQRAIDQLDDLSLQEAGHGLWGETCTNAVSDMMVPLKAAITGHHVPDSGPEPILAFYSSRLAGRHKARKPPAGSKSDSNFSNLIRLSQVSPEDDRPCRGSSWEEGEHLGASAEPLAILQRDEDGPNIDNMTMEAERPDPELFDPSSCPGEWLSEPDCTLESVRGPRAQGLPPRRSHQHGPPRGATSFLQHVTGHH

CLK3 = target: T4, CLK3 (Homo sapiens, UniProt P49761); test: as above; type: biochemical; conditions: 1 µmol/L of BTK inhibitor
T4 construct: purchased Carna Biosciences

PAK2 = target: T5, PAK2 (Homo sapiens, UniProt Q13177); test: as above; type: biochemical; conditions: 1 µmol/L of BTK inhibitor
T5 construct: purchased Carna Biosciences

AMPKα2/β1/γ1 = target: T6, AMPKα2/β1/γ1 (Homo sapiens, UniProt P54646); test: as above; type: biochemical; conditions: 1 µmol/L of BTK inhibitor
T6 construct: purchased Carna Biosciences

JAK1 = target: T7, JAK1 (Homo sapiens, UniProt P23458); test: as above; type: biochemical; conditions: 1 µmol/L of BTK inhibitor
T7 construct: purchased Carna Biosciences

ERK1 = ERK1 (Homo sapiens, UniProt P27361); test: Kinase enzyme activity assay (mobility shift assay, Carna); conditions: for Percentage inhibition of kinase enzyme activity: Erk1, 1 µmol/L of BTK inhibitor
PKD2 = target: T8, PKD2 (Homo sapiens, UniProt Q9BZL6); test: Kinase panel profiling at 1 µmol/L (mobility shift assay, Carna); type: biochemical; conditions: 1 µmol/L of BTK inhibitor
T8 construct: purchased Carna Biosciences
T8 sequence (Q9BZL6 1-878): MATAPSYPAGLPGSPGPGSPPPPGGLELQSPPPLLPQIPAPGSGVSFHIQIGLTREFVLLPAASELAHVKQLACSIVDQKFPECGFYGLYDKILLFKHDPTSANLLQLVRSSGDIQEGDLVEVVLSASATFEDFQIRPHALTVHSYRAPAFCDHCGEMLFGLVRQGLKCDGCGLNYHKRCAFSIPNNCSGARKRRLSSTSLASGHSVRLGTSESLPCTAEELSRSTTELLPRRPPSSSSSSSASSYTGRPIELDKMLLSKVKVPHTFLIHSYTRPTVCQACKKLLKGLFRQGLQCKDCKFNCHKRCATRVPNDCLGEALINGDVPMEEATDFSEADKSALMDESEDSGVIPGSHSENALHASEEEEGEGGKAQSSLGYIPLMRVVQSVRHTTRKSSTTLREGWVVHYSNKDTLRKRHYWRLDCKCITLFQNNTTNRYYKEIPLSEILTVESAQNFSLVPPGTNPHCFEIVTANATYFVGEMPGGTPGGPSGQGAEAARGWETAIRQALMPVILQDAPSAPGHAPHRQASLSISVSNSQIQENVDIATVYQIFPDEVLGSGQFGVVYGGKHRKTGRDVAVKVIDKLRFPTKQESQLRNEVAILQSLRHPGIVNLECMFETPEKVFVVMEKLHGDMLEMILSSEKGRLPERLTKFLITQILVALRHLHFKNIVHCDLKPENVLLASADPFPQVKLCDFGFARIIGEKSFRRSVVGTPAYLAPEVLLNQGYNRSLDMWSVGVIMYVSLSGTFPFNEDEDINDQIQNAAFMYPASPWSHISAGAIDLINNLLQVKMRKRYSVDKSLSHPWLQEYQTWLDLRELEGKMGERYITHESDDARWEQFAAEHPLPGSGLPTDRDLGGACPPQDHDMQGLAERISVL

ERK1, sequence (P27361 whole entry): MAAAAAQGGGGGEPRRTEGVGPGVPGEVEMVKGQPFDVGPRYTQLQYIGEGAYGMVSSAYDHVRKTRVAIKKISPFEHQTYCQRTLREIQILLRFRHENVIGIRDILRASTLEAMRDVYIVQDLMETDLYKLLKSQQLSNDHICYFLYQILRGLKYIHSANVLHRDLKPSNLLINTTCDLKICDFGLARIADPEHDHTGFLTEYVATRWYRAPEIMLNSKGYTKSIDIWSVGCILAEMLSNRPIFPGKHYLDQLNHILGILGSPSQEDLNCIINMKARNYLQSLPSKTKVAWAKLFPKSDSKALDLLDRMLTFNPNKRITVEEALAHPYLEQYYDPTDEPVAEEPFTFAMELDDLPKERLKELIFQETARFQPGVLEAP
T6 sequence (P54646 whole entry): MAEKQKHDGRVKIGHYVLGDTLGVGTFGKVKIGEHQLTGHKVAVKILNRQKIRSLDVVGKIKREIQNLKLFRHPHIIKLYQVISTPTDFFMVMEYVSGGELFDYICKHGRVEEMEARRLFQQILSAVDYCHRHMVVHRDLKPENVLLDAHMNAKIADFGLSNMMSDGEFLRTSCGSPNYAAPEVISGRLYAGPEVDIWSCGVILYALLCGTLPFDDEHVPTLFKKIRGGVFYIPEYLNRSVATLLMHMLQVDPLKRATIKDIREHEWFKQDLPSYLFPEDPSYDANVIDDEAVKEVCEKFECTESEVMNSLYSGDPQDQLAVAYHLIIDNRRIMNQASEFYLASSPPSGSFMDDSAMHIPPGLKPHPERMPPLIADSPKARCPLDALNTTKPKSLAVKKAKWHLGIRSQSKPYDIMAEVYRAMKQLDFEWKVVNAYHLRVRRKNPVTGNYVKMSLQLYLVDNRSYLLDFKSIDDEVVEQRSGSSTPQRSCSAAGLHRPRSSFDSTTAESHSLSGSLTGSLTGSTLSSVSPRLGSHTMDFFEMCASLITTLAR
T6 sequence (Q9Y478 whole entry partner): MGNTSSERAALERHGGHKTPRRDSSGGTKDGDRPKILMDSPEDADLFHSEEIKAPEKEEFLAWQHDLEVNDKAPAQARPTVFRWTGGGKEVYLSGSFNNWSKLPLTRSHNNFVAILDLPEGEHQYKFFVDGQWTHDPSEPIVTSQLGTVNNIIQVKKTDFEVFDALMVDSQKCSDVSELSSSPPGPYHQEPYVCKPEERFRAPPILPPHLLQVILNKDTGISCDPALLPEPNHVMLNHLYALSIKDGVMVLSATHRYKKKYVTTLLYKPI
T6 sequence (P54619 whole entry partner): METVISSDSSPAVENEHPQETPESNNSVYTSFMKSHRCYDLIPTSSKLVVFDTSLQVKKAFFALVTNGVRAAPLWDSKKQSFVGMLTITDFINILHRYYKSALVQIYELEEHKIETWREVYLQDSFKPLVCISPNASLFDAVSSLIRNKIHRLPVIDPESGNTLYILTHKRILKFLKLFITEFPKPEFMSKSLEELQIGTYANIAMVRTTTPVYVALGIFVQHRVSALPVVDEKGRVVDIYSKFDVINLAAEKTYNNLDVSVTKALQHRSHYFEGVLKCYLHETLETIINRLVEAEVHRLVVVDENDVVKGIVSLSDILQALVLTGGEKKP
T5 sequence (Q13177 whole entry): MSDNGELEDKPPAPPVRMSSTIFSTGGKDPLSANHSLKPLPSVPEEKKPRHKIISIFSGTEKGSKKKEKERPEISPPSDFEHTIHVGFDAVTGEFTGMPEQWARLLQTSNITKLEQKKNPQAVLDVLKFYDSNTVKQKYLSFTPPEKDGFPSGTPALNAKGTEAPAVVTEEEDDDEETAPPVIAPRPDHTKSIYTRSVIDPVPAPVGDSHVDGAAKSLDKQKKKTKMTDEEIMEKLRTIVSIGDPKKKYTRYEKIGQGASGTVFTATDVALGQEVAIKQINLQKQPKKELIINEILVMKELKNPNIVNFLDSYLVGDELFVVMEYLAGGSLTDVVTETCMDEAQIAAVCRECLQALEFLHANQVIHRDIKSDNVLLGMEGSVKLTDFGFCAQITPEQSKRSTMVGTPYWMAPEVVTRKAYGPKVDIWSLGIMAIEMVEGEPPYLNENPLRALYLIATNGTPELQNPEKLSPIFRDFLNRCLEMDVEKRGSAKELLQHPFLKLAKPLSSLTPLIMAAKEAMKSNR
T4 sequence (P49761 whole entry): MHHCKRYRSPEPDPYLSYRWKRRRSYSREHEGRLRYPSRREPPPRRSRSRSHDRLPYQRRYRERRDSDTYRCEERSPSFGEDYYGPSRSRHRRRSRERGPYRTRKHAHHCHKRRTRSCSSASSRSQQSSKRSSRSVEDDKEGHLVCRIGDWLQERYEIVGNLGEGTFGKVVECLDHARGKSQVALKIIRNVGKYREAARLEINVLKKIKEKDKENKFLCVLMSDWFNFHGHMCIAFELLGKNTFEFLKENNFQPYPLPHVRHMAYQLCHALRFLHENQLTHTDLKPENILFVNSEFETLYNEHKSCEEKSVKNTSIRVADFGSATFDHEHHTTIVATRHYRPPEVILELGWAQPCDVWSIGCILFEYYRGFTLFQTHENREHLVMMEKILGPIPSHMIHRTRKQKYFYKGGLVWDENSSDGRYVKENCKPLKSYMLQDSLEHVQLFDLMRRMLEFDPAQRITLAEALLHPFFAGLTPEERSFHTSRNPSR
T7 sequence (P23458 whole entry): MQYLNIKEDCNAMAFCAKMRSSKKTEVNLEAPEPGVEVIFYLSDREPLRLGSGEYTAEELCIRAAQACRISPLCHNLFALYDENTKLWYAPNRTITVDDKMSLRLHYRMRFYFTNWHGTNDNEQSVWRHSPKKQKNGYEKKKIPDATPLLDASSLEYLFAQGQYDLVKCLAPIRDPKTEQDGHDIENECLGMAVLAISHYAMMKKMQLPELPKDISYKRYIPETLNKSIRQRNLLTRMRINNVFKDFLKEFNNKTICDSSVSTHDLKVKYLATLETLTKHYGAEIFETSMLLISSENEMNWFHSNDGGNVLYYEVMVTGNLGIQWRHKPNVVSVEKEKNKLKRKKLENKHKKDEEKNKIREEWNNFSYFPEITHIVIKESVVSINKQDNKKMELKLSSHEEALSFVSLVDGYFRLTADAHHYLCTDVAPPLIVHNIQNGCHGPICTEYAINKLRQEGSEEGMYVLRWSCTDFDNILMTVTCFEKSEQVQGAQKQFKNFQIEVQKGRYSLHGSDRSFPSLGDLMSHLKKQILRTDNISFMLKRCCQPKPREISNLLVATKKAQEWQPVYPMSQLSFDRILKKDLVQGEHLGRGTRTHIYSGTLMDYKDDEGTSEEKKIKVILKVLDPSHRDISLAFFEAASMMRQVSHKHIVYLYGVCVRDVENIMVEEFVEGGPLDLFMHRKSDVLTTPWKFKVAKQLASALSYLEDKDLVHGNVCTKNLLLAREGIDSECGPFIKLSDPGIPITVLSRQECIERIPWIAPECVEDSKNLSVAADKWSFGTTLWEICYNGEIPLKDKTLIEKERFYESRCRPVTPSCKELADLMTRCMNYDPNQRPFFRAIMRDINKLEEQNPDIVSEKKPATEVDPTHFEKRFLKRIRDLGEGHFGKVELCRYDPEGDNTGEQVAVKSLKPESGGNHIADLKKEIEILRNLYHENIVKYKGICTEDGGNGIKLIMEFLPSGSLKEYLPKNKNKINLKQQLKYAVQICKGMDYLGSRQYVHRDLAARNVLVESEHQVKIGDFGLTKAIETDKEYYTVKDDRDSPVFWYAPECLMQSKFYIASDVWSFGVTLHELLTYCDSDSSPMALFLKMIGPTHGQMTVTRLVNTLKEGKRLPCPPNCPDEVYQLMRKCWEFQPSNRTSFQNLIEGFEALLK
T1 sequence (P05771 1-673 isoform P05771-2): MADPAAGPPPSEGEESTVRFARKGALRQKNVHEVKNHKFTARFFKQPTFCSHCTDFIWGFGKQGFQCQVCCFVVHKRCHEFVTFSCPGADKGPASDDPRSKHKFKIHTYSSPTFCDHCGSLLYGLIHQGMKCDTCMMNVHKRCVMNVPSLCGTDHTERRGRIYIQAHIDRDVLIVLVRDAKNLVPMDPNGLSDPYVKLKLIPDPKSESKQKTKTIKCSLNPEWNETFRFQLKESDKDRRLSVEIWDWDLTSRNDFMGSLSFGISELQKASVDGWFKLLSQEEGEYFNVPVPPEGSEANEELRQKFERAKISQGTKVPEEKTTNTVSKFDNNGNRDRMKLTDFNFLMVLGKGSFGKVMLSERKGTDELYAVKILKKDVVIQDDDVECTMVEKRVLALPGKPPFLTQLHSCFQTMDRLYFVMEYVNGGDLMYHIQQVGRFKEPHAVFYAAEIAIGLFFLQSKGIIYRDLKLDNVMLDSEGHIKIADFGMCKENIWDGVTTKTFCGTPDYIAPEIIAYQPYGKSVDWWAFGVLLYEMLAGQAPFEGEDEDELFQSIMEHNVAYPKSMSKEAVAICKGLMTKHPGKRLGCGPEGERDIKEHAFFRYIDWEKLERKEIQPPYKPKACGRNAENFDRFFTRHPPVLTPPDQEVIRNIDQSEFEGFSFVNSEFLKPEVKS

Structure (SMILES) | Percentage inhibition of kinase enzyme activity (PKCβ2) [%] | Percentage inhibition of kinase enzyme activity (TYRO3) [%] | Percentage inhibition of kinase enzyme activity (HIPK4) [%] | Percentage inhibition of kinase enzyme activity (CLK3) [%] | Percentage inhibition of kinase enzyme activity (PAK2) [%] | Percentage inhibition of kinase enzyme activity (AMPKα2/β1/γ1) [%] | Percentage inhibition of kinase enzyme activity (JAK1) [%] | Percentage inhibition of kinase enzyme activity (ERK1) [%] | Percentage inhibition of kinase enzyme activity (PKD2) [%] | IC50 (ERK1) [nM] | Inhibition of ERK1 (ERK1)
CC#CC(=O)N1CCC[C@H]1c1nc(-c2ccc(C(=O)Nc3ccccn3)cc2)c2c(N)nccn12 [acalabrutinib] | -12.04 | 3.11 | -9.54 | -14.91 | -5.20 | 3.50 | -12.91 | -2.38 | -9.88 |  | 
COc1ccc(F)cc1C(=O)NCc1ccc(-c2nn([C@@H](C)C(F)(F)F)c(N)c2C(N)=O)cc1 [pirtobrutinib] | -8.67 | -3.18 | 2.58 | 14.87 | 8.29 | 6.23 | -2.12 | -1.16 | -6.50 |  | 
C=CC(=O)N1CCC[C@@H](n2nc(-c3ccc(Oc4ccccc4)cc3)c3c(N)ncnc32)C1 [ibrutinib] | 1.78 | 11.95 | 2.60 |  | -5.81 | 10.21 | -9.54 | 1.74 | -3.20 |  | 
O=C(c1ccc(Oc2ccccc2)cc1Cl)c1c[nH]c2ncnc(N[C@@H]3CC[C@@H](CO)OC3)c12 [nemtabrutinib] | -1.79 | 58.33 | 13.77 | -2.19 | 93.68 | 40.46 | 32.55 | 61.74 | 7.65 | 543 | did not inhibit
C=CC(=O)N1CCC([C@@H]2CCNc3c(C(N)=O)c(-c4ccc(Oc5ccccc5)cc4)nn32)CC1 [zanubrutinib] | -1.66 |  |  |  | 9.82 |  | -0.37 |  |  |  | 
